Experiment [1] relates to Mycosphaerella graminicola; Anamorph: Septoria tritici; Bayer Code SEPTTR. In words: Leaf blotch of wheat, foliar fungicide treatment, one day protectant (1DP) or three day curative (3DC). In kind it is in vivo, Septoria tritici on wheat plants (variety Yuma). The following applies: Zymoseptoria tritici.
For experiment [2], the system named is Cercospora beticola; Bayer Code CERCBE. In words: Leaf spot of sugar beets. It counts as in vivo, Cercospora beticola on sugar beets (variety HH-88). The following applies: 24 h, % disease control rating, one day protectant; for pest or weed control at 25 ppm: read-out: CERCBE 1 DP 25 ppm; for pest or weed control at 75 ppm: read-out: CERCBE 1 DP 75 ppm.
The test system of experiment [3] is Venturia inaequalis; Bayer Code VENTIN. In words: Apple scab. It counts as in vivo. The note with it: 24 h, % disease control rating, one day protectant; for pest or weed control at 25 ppm: read-out: VENTIN 1 DP 25 ppm; for pest or weed control at 75 ppm: read-out: VENTIN 1 DP 75 ppm.
[4] abbreviates: 24 h, one day protectant (1DP), rating of percent disease control, read-out: SETTTR 1DP 25 ppm.
[5] abbreviates: 24 h, one day protectant (1DP), rating of percent disease control, read-out: SEPTTR 1DP 100 ppm.
[6] abbreviates: 72 h, three day curative (3DC), rating of percent disease control, read-out: SEPTTR 3DC 25 ppm.
The mark [7] stands for this setting: 72 h, three day curative (3DC), rating of percent disease control, read-out: SEPTTR 3DC 100 ppm.

Read-outs that look alike come from different tables or passages of the source.

For `O=C(Nc1nc(OCc2cccc(F)c2)ncc1F)OCc1ccc([N+](=O)[O-])cc1` [Compound 180], the pest or weed control at 25 ppm in experiment [1] (24 h, one day protectant (1DP), percent disease control rating, read-out: SETTTR 1DP 25 ppm) lay within 0 to 25%; in experiment [1] (72 h, three day curative (3DC), percent disease control rating, read-out: SEPTTR 3DC 25 ppm), 0 to 25%; in experiment [2] it was 0 to 25%; in experiment [3] it was 26 to 50%. The pest or weed control at 100 ppm in experiment [1] (24 h, one day protectant (1DP), percent disease control rating, read-out: SEPTTR 1DP 100 ppm) fell in the range of 51 to 75%; in experiment [1] (72 h, three day curative (3DC), percent disease control rating, read-out: SEPTTR 3DC 100 ppm), 0 to 25%. Moreover, the pest or weed control at 75 ppm is 26 to 50% in experiment [2] and 0 to 25% in experiment [3].

For `COc1ccc(Oc2ncc(F)c(/N=C/N(C)C)n2)cc1` [Compound 187], the pest or weed control at 25 ppm in experiment [1] (setting [4]) is 0 to 25%; in experiment [1] (setting [6]), 0 to 25%; in experiment [2], 0 to 25%; in experiment [3], 51 to 75%. For the same molecule, the values for the pest or weed control at 100 ppm in experiment [1] (setting [5]) and in experiment [1] (setting [7]) were 0 to 25% and 51 to 75%, respectively. For the same molecule, the pest or weed control at 75 ppm in experiment [2] and in experiment [3] was 26 to 50% in each case.

Regarding `COc1c(C)cnc(COc2ncc(F)c(N)n2)c1C` [Compound 189], the pest or weed control at 25 ppm is 51 to 75% in experiment [1] (setting [4]), 51 to 75% in experiment [1] (setting [6]), 26 to 50% in experiment [2] and 51 to 75% in experiment [3]. The pest or weed control at 100 ppm in experiment [1] (setting [5]) and in experiment [1] (setting [7]) was 76 to 100% each time. Moreover, the pest or weed control at 75 ppm in experiment [2] was in the range of 0 to 25%; in experiment [3], 51 to 75%.

`CS(=O)(=O)c1ccc(COc2ncc(F)c(N)n2)cc1` [Compound 207]: the pest or weed control at 25 ppm in experiment [1] (setting [4]), in experiment [1] (setting [6]), in experiment [2] and in experiment [3] was 0 to 25% throughout. Moreover, the pest or weed control at 100 ppm in experiment [1] (setting [5]) is 26 to 50%; in experiment [1] (setting [7]), 0 to 25%. Besides, the pest or weed control at 75 ppm in experiment [2] was in the range of 0 to 25%; in experiment [3], 26 to 50%.

Consider `Cn1nc(C(F)(F)F)c(COc2ncc(F)c(N)n2)c1Cl` [Compound 211], for which the pest or weed control at 25 ppm in experiment [1] (setting [4]) fell in the range of 76 to 100%; in experiment [1] (setting [6]) it was 76 to 100%; in experiment [2], 0 to 25%; in experiment [3] it was 26 to 50%. Also, the pest or weed control at 100 ppm in experiment [1] (setting [5]) and in experiment [1] (setting [7]) was 76 to 100% each time. Further, the pest or weed control at 75 ppm in experiment [2] fell in the range of 0 to 25%; in experiment [3] it was 51 to 75%.

Take `CC(=O)Nc1nc(OCCNc2ccccc2)ncc1F` [Compound 214]: the pest or weed control at 25 ppm in experiment [1] (setting [4]) fell in the range of 0 to 25%; in experiment [1] (setting [6]) it was 0 to 25%; in experiment [2] it was 51 to 75%; in experiment [3], 76 to 100%. Further, the pest or weed control at 100 ppm in experiment [1] (setting [5]) and in experiment [1] (setting [7]) was 0 to 25% each time. The pest or weed control at 75 ppm in experiment [2] lay in the range of 51 to 75%; in experiment [3], 76 to 100%.

Turning to `O=C1OC(Nc2nc(OCc3ccc(F)cc3)ncc2F)c2ccccc21` (centres unmarked) [Compound 226], the pest or weed control at 25 ppm is 76 to 100% in experiment [1] (setting [4]), 76 to 100% in experiment [1] (setting [6]), 0 to 25% in experiment [2] and 26 to 50% in experiment [3]. In addition, the pest or weed control at 100 ppm in experiment [1] (setting [5]) and in experiment [1] (setting [7]) was 76 to 100% throughout. The pest or weed control at 75 ppm is 26 to 50% in experiment [2] and 76 to 100% in experiment [3].

As for `CONc1nc(OCc2ccc(F)cc2)ncc1F` [Compound 233], the pest or weed control at 25 ppm in experiment [1] (setting [4]) was 51 to 75%; in experiment [1] (setting [6]), 76 to 100%; in experiment [2], 0 to 25%; in experiment [3], 0 to 25%. Besides, the pest or weed control at 100 ppm in experiment [1] (setting [5]) and in experiment [1] (setting [7]) was 76 to 100% throughout. Moreover, the pest or weed control at 75 ppm is 0 to 25% in experiment [2] and 51 to 75% in experiment [3].

In the case of `CN(C)/C=N/c1nc(OCCNc2ccccc2)ncc1F` [Compound 248], the pest or weed control at 25 ppm in experiment [1] (setting [4]) is 0 to 25%; in experiment [1] (setting [6]), 76 to 100%; in experiment [2] it was 0 to 25%; in experiment [3], 0 to 25%. Also, the pest or weed control at 100 ppm in experiment [1] (setting [5]) and in experiment [1] (setting [7]) was 76 to 100% in each case. In addition, the pest or weed control at 75 ppm in experiment [2] fell in the range of 0 to 25%; in experiment [3] it was 51 to 75%.

On to `Cc1oc(-c2ccccc2)cc1COc1ncc(F)c(N)n1` [Compound 251], for which the pest or weed control at 25 ppm in experiment [1] (setting [4]) was in the range of 76 to 100%; in experiment [1] (setting [6]), 76 to 100%; in experiment [2], 0 to 25%; in experiment [3] it was 76 to 100%. In addition, the pest or weed control at 100 ppm in experiment [1] (setting [5]) and in experiment [1] (setting [7]) was 76 to 100% in each case. Besides, the figures for the pest or weed control at 75 ppm in experiment [2] and in experiment [3] were 51 to 75% and 76 to 100%, respectively.

As for `CN(C)/C=N/c1nc(OC(=O)c2ccc(Cl)cc2Cl)ncc1F` [Compound 260], the pest or weed control at 25 ppm in experiment [1] (setting [4]), in experiment [1] (setting [6]), in experiment [2] and in experiment [3] was 76 to 100% each time. For the same molecule, the pest or weed control at 100 ppm in experiment [1] (setting [5]) and in experiment [1] (setting [7]) was 76 to 100% throughout. Also, the figures for the pest or weed control at 75 ppm in experiment [2] and in experiment [3] were 51 to 75% and 76 to 100%, respectively.

As for `Nc1nc(OCCN2CCCC2=O)ncc1F` [Compound 270], the pest or weed control at 25 ppm fell in the range of 0 to 25% in experiment [1] (setting [4]), 0 to 25% in experiment [1] (setting [6]), 26 to 50% in experiment [2] and 0 to 25% in experiment [3]. In addition, the pest or weed control at 100 ppm in experiment [1] (setting [5]) and in experiment [1] (setting [7]) was 0 to 25% each time. Also, the pest or weed control at 75 ppm in experiment [2] and in experiment [3] was 26 to 50% each time.

For the molecule `Nc1nc(OCc2ccc(F)cc2C(F)(F)F)ncc1F` [Compound 271], the pest or weed control at 25 ppm lay within 76 to 100% in experiment [1] (setting [4]), 51 to 75% in experiment [1] (setting [6]), 26 to 50% in experiment [2] and 26 to 50% in experiment [3]. Further, the pest or weed control at 100 ppm in experiment [1] (setting [5]) and in experiment [1] (setting [7]) was 76 to 100% in each case. In addition, the pest or weed control at 75 ppm in experiment [2] was 26 to 50%; in experiment [3], 51 to 75%.

For `COc1cc(COc2ncc(F)c(N)n2)cc(Cl)n1` [Compound 311], the pest or weed control at 25 ppm in experiment [1] (setting [4]) was in the range of 76 to 100%; in experiment [1] (setting [6]), 76 to 100%; in experiment [2] it was 26 to 50%; in experiment [3], 26 to 50%. The pest or weed control at 100 ppm in experiment [1] (setting [5]) and in experiment [1] (setting [7]) was 76 to 100% in each case. Moreover, the pest or weed control at 75 ppm in experiment [2] and in experiment [3] was 26 to 50% in each case.

Regarding `Nc1nc(OCc2ccc(-c3ccccn3)s2)ncc1F` [Compound 316], the pest or weed control at 25 ppm in experiment [1] (setting [4]) was in the range of 76 to 100%; in experiment [1] (setting [6]), 76 to 100%; in experiment [2] it was 51 to 75%; in experiment [3], 76 to 100%. For the same molecule, the pest or weed control at 100 ppm in experiment [1] (setting [5]) and in experiment [1] (setting [7]) was 76 to 100% throughout. Also, the pest or weed control at 75 ppm in experiment [2] and in experiment [3] was 76 to 100% in each case.

Take `CC(Oc1ncc(F)c(N)n1)c1cccc2ccccc12` (centres unmarked) [Compound 335]: the pest or weed control at 25 ppm is 76 to 100% in experiment [1] (setting [4]), 76 to 100% in experiment [1] (setting [6]), 26 to 50% in experiment [2] and 76 to 100% in experiment [3]. Besides, the pest or weed control at 100 ppm in experiment [1] (setting [5]) and in experiment [1] (setting [7]) was 76 to 100% throughout. Also, the pest or weed control at 75 ppm in experiment [2] and in experiment [3] was 76 to 100% each time.

Regarding `CS(=O)(=O)Oc1ncc(F)c(N)n1` [Compound 337], the pest or weed control at 25 ppm in experiment [1] (setting [4]) lay within 26 to 50%; in experiment [1] (setting [6]), 26 to 50%; in experiment [2], 51 to 75%; in experiment [3], 51 to 75%. Besides, the pest or weed control at 100 ppm in experiment [1] (setting [5]) was in the range of 76 to 100%; in experiment [1] (setting [7]), 26 to 50%. For the same molecule, the pest or weed control at 75 ppm in experiment [2] and in experiment [3] was 76 to 100% throughout.

Regarding `COc1c(F)cccc1COc1ncc(F)c(N)n1` [Compound 341], the pest or weed control at 25 ppm lay within 76 to 100% in experiment [1] (setting [4]), 76 to 100% in experiment [1] (setting [6]), 0 to 25% in experiment [2] and 26 to 50% in experiment [3]. Further, the pest or weed control at 100 ppm in experiment [1] (setting [5]) and in experiment [1] (setting [7]) was 76 to 100% each time. The pest or weed control at 75 ppm in experiment [2] and in experiment [3] was 0 to 25% throughout.

With `Nc1nc(OCc2ccccc2N2CCOCC2)ncc1F` [Compound 342], the pest or weed control at 25 ppm is 76 to 100% in experiment [1] (setting [4]), 76 to 100% in experiment [1] (setting [6]), 26 to 50% in experiment [2] and 76 to 100% in experiment [3]. The pest or weed control at 100 ppm in experiment [1] (setting [5]) and in experiment [1] (setting [7]) was 76 to 100% each time. Besides, the pest or weed control at 75 ppm in experiment [2] and in experiment [3] was 76 to 100% throughout.
